Marks after values point to notes of the source that are not given here.
Tests used:
ovarian tumor SKOV3 = assay: SKOV3 ovarian tumor progression and cytokines in nude mice; format: in vivo
Description: Human mAb LT3015 reduced ovarian tumor SKOV3 progression and circulating cytokines in biological fluids. Nude mice were engrafted with either 10 mg/kg LT3015, vehicle, or 2 mg/kg paclitaxel (Taxol). After 56 days, mice were sacrificed and the peritoneal cavities were analyzed for tumor burden and ascites fluid accumulation. Tumors were harvested and final tumor weights were determined along with ascites volumes. Data were analyzed by ANOVA and student's t-test analysis. […] Serum and ascites levels of IL-6, IL-8, GM-CSF and VEGF were measured using ELISA kits from R&D systems, Minneapolis Minn.

[1] = system: CXCL8/IL-8 release, SKOV3 ovarian cells; assay: LPA-induced IL-8 release in SKOV3 cells; format: cell-based, human; details: 1 uM LPA alone (stimulus)
Description: (§1) Anti-LPA antibodies inhibit the LPA-dependant release of human CXCL8/IL-8 in conditioned media of SKOV3 ovarian cells. SKOV3 cells (Lot No 4255558, passage 14) were harvested with 2 ml of 1× Trypsin EDTA (Mediatech Inc, Cat. No 25-053-CV) and resuspended in 8 ml of complete medium (10% FBS, Mediatech Inc. Cat. no 35-011-CV). The cells were centrifuged for 5 min ([…]) and re-suspended in 5 ml of complete medium. Cells were counted in duplicate with 0.4% Trypan blue (10 ul cells plus 90 ul Trypan blue, Invitrogen, Cat. No 15250-061) using a hemocytometer. In a 96-well plate, 1×10^5 cells per well were seeded (final volume 100 ul/well). The cells were allowed to attach and form a confluent monolayer by incubating overnight at 37° C. On the following day, cells were gently washed two times with minimum media (1 mg/ml BSA in McCoy's medium with L-glutamine, Mediatech, Cat. No 10-050-CV). […] The CXCL8/IL-8 levels in each supernatant were measured using the Quantikine human CXCL8/IL-8 ELISA kit according to vendor instructions (R&D Systems, Minneapolis Minn., Cat. No D8000C). The IL-6 levels were measured by ELISA using the Quantikine human IL-6 immunoassay kit (R&D systems, Cat. No. D6050). Data were analyzed by one-way ANOVA followed by Bonferroni's post test and expressed as human IL-8 or human IL-6 fold increase.

[2] = system: IL-6 release, SKOV3 ovarian cells; assay: LPA-induced IL-6 release in SKOV3 cells; format: cell-based, human; details: 1 uM LPA alone (stimulus)
Description: as §1

SKOV3 cells = assay: Tumor cell migration in the scratch assay; format: cell-based; details: 17 hr
Description: SKOV3 cells were plated at 15,000 cells per well in a 96-well plate. The following day the cells were serum starved in minimal media (McCoy's Media 5a, adjusted to contain L-Glutamine, 2.2 g/L Sodium Bicarbonate, 1% penicillin/streptomycin and 1 mg/ml BSA) for 24 hrs. At time 0 cells were scratched with a p200 pipet tip down the center of each well, washed with minimal media and pictures were taken prior to treatment. Cells were then treated with LPA (C18:1) at 0.2 uM, 1.0 uM and 10 uM concentrations which were pre-incubated at 37° C. with […] in the presence or absence of antibody at 150 ug/ml. Positive control (10% FBS treated cells) and antibody alone added to 1 uM LPA, were also tested. Cells were stimulated for 17 hrs at 37° C. in a 5% CO2 incubator. Pictures were taken again 17 hr post-treatment and % wound closure was measured by adjusting pictures to the same size and measuring the width of the scratch at time 0 and time 17 hr with a ruler. Data were analyzed by Student's t-test.

| Molecule | Tumor Burden (ovarian tumor SKOV3; 56 days, LT3015 10 mg/kg, Taxol 2 mg/kg, mean ± S.E., vehicle 1274 ± 209) | % Reduction (tumor burden) (ovarian tumor SKOV3; 56 days, LT3015 10 mg/kg, Taxol 2 mg/kg, versus vehicle) | GM-CSF-ascites (ovarian tumor SKOV3; LT3015 10 mg/kg (N = 4), Taxol 2 mg/kg (N = 1), vehicle 1200 ± 248.2) | IL-8-ascites (ovarian tumor SKOV3; LT3015 10 mg/kg (N = 4), Taxol 2 mg/kg (N = 1), vehicle 2097 ± 132.1) | VEGF-ascites (ovarian tumor SKOV3; LT3015 10 mg/kg (N = 4), Taxol 2 mg/kg (N = 1), vehicle 3341 ± 202.5) | Ascites volume (ovarian tumor SKOV3; LT3015 10 mg/kg, Taxol 2 mg/kg, vehicle 3.563 ± 1.144) | IL-6-serum (ovarian tumor SKOV3; LT3015 10 mg/kg, Taxol 2 mg/kg, vehicle 84.56 ± 16.62) | GM-CSF-serum (ovarian tumor SKOV3; LT3015 10 mg/kg, Taxol 2 mg/kg, vehicle 320.5 ± 43.18) | IL-8-serum (ovarian tumor SKOV3; LT3015 10 mg/kg, Taxol 2 mg/kg, vehicle 687.6 ± 114.1) | Ascites presence (ovarian tumor SKOV3; animals with ascites / animals, LT3015 10 mg/kg, Taxol 2 mg/kg, vehicle 6/11) | Human IL-8 Fold Increase (approx). [1] | Human IL-6 Fold Increase (approx). [2] | Percent wound closure (approx.) (SKOV3 cells; 0.2 uM LPA) | Percent wound closure (approx.) (SKOV3 cells; 1.0 uM LPA) | Percent wound closure (approx.) (SKOV3 cells; 10 uM LPA) |
| --- | --- | --- | --- | --- | --- | --- | --- | --- | --- | --- | --- | --- | --- | --- | --- |
| CC(=O)O[C@H]1C(=O)[C@@]2(C)[C@H]([C@H](OC(=O)c3ccccc3)[C@]3(O)C[C@H](OC(=O)[C@H](O)[C@@H](NC(=O)c4ccccc4)c4ccccc4)C(C)=C1C3(C)C)[C@]1(OC(C)=O)CO[C@@H]1C[C@@H]2O [Taxol, paclitaxel] | 381 ± 73 mg | 70.1% | 2054 ± 0 pg/mL | 2187 ± 0 pg/mL | 3344 ± 0 pg/mL | 0.2 ± 0.0 mL | 29.19 ± 9.568 pg/mL | 340.2 ± 62.98 pg/mL | 234.7 ± 83.04 pg/mL | 1/7 |  |  |  |  |  |
| Lysophosphatidic acid [LPA] |  |  |  |  |  |  |  |  |  |  | ~7.1## fold | ~29## fold | ~65% | ~81% | ~89% |

From patent US20120034631A1, “ANTI-LYSOPHOSPHOLIPID ANTIBODY DESIGN USING ANTIBODY STRUCTURES” (priority 2010, published 2012)
